Laboratory results published in US20010006673A1, “LUTEIN- CONTAINING SUPPLEMENT AND PROCESS FOR ENHANCING IMMUNE RESPONSE IN ANIMALS” (priority 1998, published 2001).

How the values were obtained:
[1] = test system: dogs; experiment: Delayed type hypersensitivity (skin induration) response in dogs; type: in vivo, Beagle dogs; conditions: for DTH response to PHA / DTH response to vaccine: dogs
Experimental: Skin induration response was assessed in all dogs on weeks 0, 6, and 12. Dogs were injected intradermally in the flank area with saline (8.5 g/L; control), an attenuated polyvalent vaccine containing canine distemper virus, canine adenovirus type-2, canine parainfluenza virus and parvovirus (Vanguard 5, Smithkline Beacham, West Chester, Pa.; specific antigen), and PHA (0.5 g/L; nonspecific antigen). The doses of vaccine and PHA used were previously determined to provide optimal skin response in Beagle dogs of similar age. The injection site was clipped and wiped with 70% ethyl alcohol. The injection volume was 100 μL. Skin induration was measured at 0, 24, 48 and 72 h post-injection with the aid of a pressure-sensitive digital micrometer (Mitsutoyo, Tokyo, Japan) and response was expressed as a percentage of skin thickness measured at 0 h.

[2] = test system: IgG and IgM; experiment: Serum IgG and IgM by single radial immunodiffusion, dogs; type: in vivo, Beagle dogs
Experimental: Serum collected on weeks 0, 2, 4, 8 and 12 were analyzed for IgG and IgM concentrations by single radial immunodiffusion (SRID). In addition, all dogs were vaccinated with the polyvalent vaccine (Vanguard 5, Smithkline Beacham, West Chester, Pa.) on week 13 and again on week 15 to study the possible anamnestic effect of dietary lutein. Blood was collected weekly from week 13 through week 17. Goat antiserum to canine IgG (10%, whole molecule) or IgM (7.5%, μ chain specific) (ICN, Aurora, Ohio) was mixed with melted agarose (10 g/L in PBS; Sigma Chem. Co., St. Louis, Mo.) and the mixture solidified in SRID plates.
Duplicate 5 μL volumes of serum or IgG (0, 2.88, 5.75, 11.5 and 23.0 mg/ml) or IgM (0, 0.25, 0.5, 1.0 and 2.0 mg/ml) standard were loaded into the wells. After incubating for 24 hours at room temperature in a humidified chamber, ring diameters were measured using a SRID reader (Transidyne General Corp., Ann Arbor, Mich.).

[3] = parameters: species or system Tabby cats; conditions: in vivo
Experimental: Blood was collected by jugular venipuncture into heparinized evacuated tubes on weeks 0, 2, 4, 8 and 12 and aliquots used for HPLC analysis and for assessing immune responses.
Plasma lutein, retinol and α-tocopherol were analyzed by reverse phase HPLC. Briefly, plasma protein was precipitated with an equal volume of ethanol containing 0.1% butylated hydroxytoluene (BHT) (Aldrich Chemical Co., Milwaukee, Wis.). The mixture was extracted with 5 mi of a 1:1 mixture of petroleum ether:anhydrous diethyl ether and the dried residue resuspended in mobile phase. The mobile phase was a mixture of acetonitrile, methanol and chloroform (47:47:6, v/v/v). The internal standard used was retinyl acetate (Sigma Chem. Co., St. Louis, Mo.). Samples were eluted on a 5 μm C18 reverse phase column (3.9×150 mm; Resolve, Millipore Corp., Milford Mass.) with a flow rate of 1.0 ml/min. The identity of the eluted compounds was verified by comparing their absorption spectra with those of standard compounds.

[4] = test system: lymphocyte subsets (CD3, CD4, CD8, MHC class II, CD21); experiment: Lymphocyte subpopulations by flow cytometry, cats; type: in vivo, Tabby cats
Experimental: Blood leukocytes were separated on Histopaque-1119 (Sigma, St. Louis, Mo.) and cells washed three times with phosphate-buffered saline (PBS, pH 7.4). Contaminating RBC were lysed with NH4Cl (8.4 g/L) and cell viability determined by trypan blue exclusion. Lymphocyte subsets were determined by FACScan flow cytometry (Becton Dickinson, San Jose, Calif.) immediately after cell preparation. Isolated PBMC were resuspended to 1×10^7 cells/mL phosphate buffered saline (PBS) supplemented with 2% gamma globulin-free serum, 5% goat serum and 0.2 g/L sodium azide (Baker, Phillipsburg, N.J.). For immunofluorescence analysis, 5×10^5 cells were incubated for 30 minutes on ice with a previously determined optimal concentration of mouse anti-cat primary monoclonal antibody. The antibodies were specific for the following lymphocyte subsets: total T cells (anti-CD3), T-helper cells (anti-CD4), T cytotoxic/suppressor cells (anti-CD8), lymphocytes expressing major histocompatibility complex (MHC) class II antigens (anti-MHC class II), and B cells (anti-CD21). Cells were then washed three times and incubated with a secondary antibody, fluorescein isothiocyanate (FITC)-conjugated goat F(ab′)2 anti-mouse IgG (H+L) (Caltag, Burlingame, Calif.) for 30 minutes on ice to visualize the bound antibody. Stained cells were fixed in 4% paraformaldehyde in preparation for acquisition. Appropriate negative controls were included to correct the level of background fluorescence. Fluorescence analysis was performed on lymphocytes gated by forward and side scatter. Data were expressed as a percentage of positive-staining cells corrected for cells stained nonspecifically with the secondary antibody.

[5] = test system: malondialdehyde; experiment: Lipid peroxidation (TBARS), cat plasma; type: in vivo, Tabby cats; conditions: cats
Experimental: Lipid peroxidation was assessed by the TBARS (thiobarbituric acid-reactive substances) assay on plasma collected on weeks 0, 2, 4, 8 and 12. Duplicate 500 μL of cat plasma was boiled for 45 minutes with 3 mL of phosphoric acid (10 g/L) and 1 mL of TBA (6 g/L). After cooling, the TBA-MDA (malondialdehyde) complex was extracted with 4 mL of n-butanol. The butanol layer was separated by centrifugation (1,000×g for 10 minutes) and absorbance read (Beckman, Fullerton, Calif.) at 532 nm. […] Louis, Mo.).

[6] = test system: mouse splenocytes; conditions: dietary lutein; cited from earlier work
[7] = test system: Splenocytes; conditions: splenocytes from mice injected peritoneally; cited from earlier work

For `CC1=C[C@H](O)CC(C)(C)[C@H]1/C=C/C(C)=C/C=C/C(C)=C/C=C/C=C(C)/C=C/C=C(C)/C=C/C1=C(C)C[C@@H](O)CC1(C)C` [lutein], the “DTH response to PHA vs unsupplemented dogs” value ([1]; dogs fed 20 mg lutein, week 12) was “significantly higher”, the “DTH response to PHA” value ([1]; week 6, 48 and 72 h) was “no significant treatment difference” and the “DTH response to vaccine” value ([1]; week 6, 48 and 72 h post-injection) was “dose-related”. The “DTH response to vaccine” value ([1]; week 6, 24 h) was “not significant”, the “DTH response to PHA” value ([1]; week 6, 24 h post-injection) was “dose-related” and the “DTH response to vaccine” value ([1]; week 12) was “no significant dietary effect”. The “DTH response to PHA” value ([1]; week 12, 24, 48 and 72 h, all doses) was “general dose-dependent increase”, the “Plasma IgG” value ([2]; dogs fed 5 mg lutein, week 16, after revaccination on week 15, P<0.05) was “higher” and the “Plasma IgG” value ([2]; dogs fed 20 mg lutein, week 17, after revaccination on week 15) was “higher”. The “Concentration of plasma IgM” value ([2]; dogs, after revaccination) was “not changed”, the Plasma lutein [3] was “increased in a dose-dependent manner” and the “Total number of T cells (CD3)” value ([4]; cats) was “did not influence significantly”. The “Percentage of CD21+ B cells” value ([4]; cats fed 10 mg lutein, week 12) was “significantly elevated”, the “Percentage of CD8+ T cytotoxic cells” value ([4]; cats, any of the time periods) was “not influenced significantly” and the “Percentage of MHC class II+ cells” value ([4]; cats, any of the time periods) was “not influenced significantly”. The “Ratio of CD4:CD8” value ([4]; cats, any of the time periods) was “not influenced significantly”, the “Effect on plasma TBARS activity” value [5] was “did not significantly influence” and the “Plasma TBARS, average” value ([5]; across all diet groups and periods) was 20.3±0.2 nmol MDA/L. For the same compound, the Lymphocyte proliferation [6] was “enhance” and the “Antibody response to T-dependent antigens” value [7] was “enhanced”.
